GI50 and TGI data for 14 compounds are collected here from PubChem BioAssay (NCI).

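Each compound was tested at five concentrations against cells in 96-well plates for 48 hours. GI50 marks 50% less growth. The concentration for full growth arrest is given as TGI.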

For the first assay, the system named is NCI/ADR-RES ovarian. The assay is described as follows: NCI-60 cell line screen, 48 h.
Consider `N#CC(=C1SCS1)[N+](=O)[O-]`, for which the GI50 was 3.05 µM and the TGI stood at 20 µM.

For the compound `CC(C)(C)OC(=O)n1cc(CNC(=S)Nc2ccccc2)c2ccccc21`, the GI50 is 10.8 µM and the TGI came to 22.7 µM.

`O=C(NNc1nc2c(F)cccc2n2cccc12)c1cnccn1`: the GI50 was 0.327 µM and the TGI was determined as 23.3 µM.

`CN=C(N)N/N=C(\c1ccccc1)c1ccc(Br)cc1`: the GI50 was 0.322 µM and the TGI came out at 3.25 µM.

Regarding `COc1cc(/C=C\[N+](=O)[O-])ccc1O`, the GI50 is 2.84 µM and the TGI is 7.95 µM.

As for `O=C(Nc1cccc(-n2ccc3c(NC(=O)c4ccccc4)nccc32)c1)c1cccc(C(F)(F)F)c1`, the GI50 was 0.0327 µM and the TGI is over 100 µM.

Take `C=CC(=O)N[C@H]1C=C(C)c2c(-c3cnc4ccccc4c3)c3c(N)ncnc3n2C1`: the GI50 is 21.3 µM and the TGI is over 87.9 µM.

For `CNC(=O)c1ccccc1CC1(O)c2ccccc2Oc2ccccc21`, the GI50 was 10.1 µM and the TGI was 86.9 µM.

`CCOc1ccc(S(=O)(=O)/N=C2\C=C(SCC(=O)O)C(=O)c3ccccc32)cc1`: the GI50 was 3.26 µM and the TGI came out at 13.5 µM.

As for `C[C@@H]1CC[C@@H]2[C@@H]1[C@H](OC(=O)/C=C/c1ccccc1)[C@]1(c3ccccc3)C[C@@H](OC(=O)CO)[C@@]2(C)O1`, the GI50 was 4.41 µM and the TGI came out at 24.9 µM.

On to `O=C(CSc1nc2ccc([N+](=O)[O-])cc2[nH]1)Nc1ccc(F)c(Cl)c1`, for which the GI50 was 2.31 µM and the TGI was determined as 8.23 µM.

Consider `C=C1C(=O)O[C@H]2[C@H]1CC/C(CNC(=O)c1c[nH]c3ccc(F)cc13)=C\CC[C@@]1(C)O[C@@H]21`, for which the GI50 was 4.13 µM and the TGI was determined as 19.3 µM.

Take `Cc1nn(-c2ccc(F)cc2)c2ncnc(Nc3ccc(NC(=O)Nc4ccc(Cl)c(C(F)(F)F)c4)cc3)c12`: the GI50 is 2.43 µM and the TGI was found to be 10.9 µM.

As for `O=C(CCN1CCN(c2cnc3ccccc3n2)CC1)c1csc2ccccc12`, the GI50 was over 100 µM and the TGI is over 100 µM.

The test system of the next assay is OVCAR-4 ovarian. The assay is described as follows: NCI-60 cell line screen, 48 h.
As for `N#CC(=C1SCS1)[N+](=O)[O-]`, the GI50 was 4.79 µM and the TGI worked out at 19 µM.

Regarding `CC(C)(C)OC(=O)n1cc(CNC(=S)Nc2ccccc2)c2ccccc21`, the GI50 is 49.4 µM and the TGI was over 100 µM.

Turning to `O=C(NNc1nc2c(F)cccc2n2cccc12)c1cnccn1`, the GI50 was 0.469 µM and the TGI was determined as 11 µM.

Regarding `CN=C(N)N/N=C(\c1ccccc1)c1ccc(Br)cc1`, the GI50 was 0.713 µM and the TGI amounted to 15.2 µM.

With `COc1cc(/C=C\[N+](=O)[O-])ccc1O`, the GI50 was 3.86 µM and the TGI is 14.1 µM.

Consider `O=C(Nc1cccc(-n2ccc3c(NC(=O)c4ccccc4)nccc32)c1)c1cccc(C(F)(F)F)c1`, for which the GI50 was 0.104 µM and the TGI was over 67.7 µM.

In the case of `C=CC(=O)N[C@H]1C=C(C)c2c(-c3cnc4ccccc4c3)c3c(N)ncnc3n2C1`, the GI50 is 13.5 µM and the TGI is over 100 µM.

As for `CNC(=O)c1ccccc1CC1(O)c2ccccc2Oc2ccccc21`, the GI50 was 27.8 µM and the TGI was over 100 µM.

With `CCOc1ccc(S(=O)(=O)/N=C2\C=C(SCC(=O)O)C(=O)c3ccccc32)cc1`, the GI50 is 2.16 µM and the TGI worked out at 6.31 µM.

Consider `C[C@@H]1CC[C@@H]2[C@@H]1[C@H](OC(=O)/C=C/c1ccccc1)[C@]1(c3ccccc3)C[C@@H](OC(=O)CO)[C@@]2(C)O1`, for which the GI50 is 12.3 µM and the TGI worked out at 27.3 µM.

Turning to `O=C(CSc1nc2ccc([N+](=O)[O-])cc2[nH]1)Nc1ccc(F)c(Cl)c1`, the GI50 was 1.99 µM and the TGI came to 17.8 µM.

As to `C=C1C(=O)O[C@H]2[C@H]1CC/C(CNC(=O)c1c[nH]c3ccc(F)cc13)=C\CC[C@@]1(C)O[C@@H]21`, the GI50 was 3.17 µM and the TGI was 15.2 µM.

For `Cc1nn(-c2ccc(F)cc2)c2ncnc(Nc3ccc(NC(=O)Nc4ccc(Cl)c(C(F)(F)F)c4)cc3)c12`, the GI50 is 2.46 µM and the TGI worked out at 7.13 µM.

In the case of `O=C(CCN1CCN(c2cnc3ccccc3n2)CC1)c1csc2ccccc12`, the GI50 is 28.2 µM and the TGI was found to be 92.5 µM.

The test system of another assay is PC-3 prostate. Put plainly: NCI-60 cell line screen, 48 h.
Consider `N#CC(=C1SCS1)[N+](=O)[O-]`, for which the GI50 is 5.11 µM and the TGI amounted to 20.7 µM.

As for `CC(C)(C)OC(=O)n1cc(CNC(=S)Nc2ccccc2)c2ccccc21`, the GI50 was 10.5 µM and the TGI is 23 µM.

`O=C(NNc1nc2c(F)cccc2n2cccc12)c1cnccn1`: the GI50 was 0.393 µM and the TGI turned out to be 39.5 µM.

Regarding `CN=C(N)N/N=C(\c1ccccc1)c1ccc(Br)cc1`, the GI50 was 0.402 µM and the TGI worked out at 11 µM.

Turning to `COc1cc(/C=C\[N+](=O)[O-])ccc1O`, the GI50 is 8.63 µM and the TGI was 21.6 µM.

Take `O=C(Nc1cccc(-n2ccc3c(NC(=O)c4ccccc4)nccc32)c1)c1cccc(C(F)(F)F)c1`: the GI50 was 0.0434 µM and the TGI was over 100 µM.

With `C=CC(=O)N[C@H]1C=C(C)c2c(-c3cnc4ccccc4c3)c3c(N)ncnc3n2C1`, the GI50 is 22.7 µM and the TGI is over 100 µM.

Regarding `CNC(=O)c1ccccc1CC1(O)c2ccccc2Oc2ccccc21`, the GI50 is 13.1 µM and the TGI worked out at 99.3 µM.

On to `CCOc1ccc(S(=O)(=O)/N=C2\C=C(SCC(=O)O)C(=O)c3ccccc32)cc1`, for which the GI50 is 2.92 µM and the TGI was found to be 13.1 µM.

For `C[C@@H]1CC[C@@H]2[C@@H]1[C@H](OC(=O)/C=C/c1ccccc1)[C@]1(c3ccccc3)C[C@@H](OC(=O)CO)[C@@]2(C)O1`, the GI50 is 3.67 µM and the TGI stood at 18.9 µM.

For `O=C(CSc1nc2ccc([N+](=O)[O-])cc2[nH]1)Nc1ccc(F)c(Cl)c1`, the GI50 was 2.57 µM and the TGI was determined as 11.6 µM.

Turning to `C=C1C(=O)O[C@H]2[C@H]1CC/C(CNC(=O)c1c[nH]c3ccc(F)cc13)=C\CC[C@@]1(C)O[C@@H]21`, the GI50 is 2.91 µM and the TGI amounted to 12.1 µM.

As to `Cc1nn(-c2ccc(F)cc2)c2ncnc(Nc3ccc(NC(=O)Nc4ccc(Cl)c(C(F)(F)F)c4)cc3)c12`, the GI50 was 1.03 µM and the TGI was 3.98 µM.

With `O=C(CCN1CCN(c2cnc3ccccc3n2)CC1)c1csc2ccccc12`, the GI50 was 28.1 µM and the TGI was over 100 µM.

A further assay has as its system SR leukemia. The assay is described as follows: NCI-60 cell line screen, 48 h.
Take `N#CC(=C1SCS1)[N+](=O)[O-]`: the GI50 was 0.568 µM and the TGI worked out at 4.31 µM.

With `CC(C)(C)OC(=O)n1cc(CNC(=S)Nc2ccccc2)c2ccccc21`, the GI50 was 5.07 µM and the TGI is over 100 µM.

As for `O=C(NNc1nc2c(F)cccc2n2cccc12)c1cnccn1`, the GI50 is 0.392 µM and the TGI was over 37.7 µM.

Take `CN=C(N)N/N=C(\c1ccccc1)c1ccc(Br)cc1`: the GI50 is 0.31 µM and the TGI came out at 2.42 µM.

As for `COc1cc(/C=C\[N+](=O)[O-])ccc1O`, the GI50 is 0.987 µM and the TGI is 38.5 µM.

As to `O=C(Nc1cccc(-n2ccc3c(NC(=O)c4ccccc4)nccc32)c1)c1cccc(C(F)(F)F)c1`, the GI50 was 0.0284 µM.

On to `C=CC(=O)N[C@H]1C=C(C)c2c(-c3cnc4ccccc4c3)c3c(N)ncnc3n2C1`, for which the GI50 was 18.3 µM and the TGI was over 100 µM.

Turning to `CNC(=O)c1ccccc1CC1(O)c2ccccc2Oc2ccccc21`, the GI50 was 6.61 µM and the TGI came out at 86.4 µM.

On to `CCOc1ccc(S(=O)(=O)/N=C2\C=C(SCC(=O)O)C(=O)c3ccccc32)cc1`, for which the GI50 is 0.538 µM and the TGI amounted to 5.26 µM.

For the compound `C[C@@H]1CC[C@@H]2[C@@H]1[C@H](OC(=O)/C=C/c1ccccc1)[C@]1(c3ccccc3)C[C@@H](OC(=O)CO)[C@@]2(C)O1`, the GI50 was 5.86 µM and the TGI was 38.8 µM.

For the compound `O=C(CSc1nc2ccc([N+](=O)[O-])cc2[nH]1)Nc1ccc(F)c(Cl)c1`, the GI50 was 3 µM and the TGI was over 37.3 µM.

For the compound `C=C1C(=O)O[C@H]2[C@H]1CC/C(CNC(=O)c1c[nH]c3ccc(F)cc13)=C\CC[C@@]1(C)O[C@@H]21`, the GI50 is 1.01 µM and the TGI worked out at 4.78 µM.

On to `Cc1nn(-c2ccc(F)cc2)c2ncnc(Nc3ccc(NC(=O)Nc4ccc(Cl)c(C(F)(F)F)c4)cc3)c12`, for which the GI50 was 3.07 µM and the TGI is 40.5 µM.

As for `O=C(CCN1CCN(c2cnc3ccccc3n2)CC1)c1csc2ccccc12`, the GI50 was 36.1 µM and the TGI is over 100 µM.

The next assay concerns UACC-257 melanoma. The assay is described as follows: NCI-60 cell line screen, 48 h.
With `N#CC(=C1SCS1)[N+](=O)[O-]`, the GI50 is 1.09 µM and the TGI stood at 7.06 µM.

With `CC(C)(C)OC(=O)n1cc(CNC(=S)Nc2ccccc2)c2ccccc21`, the GI50 is 10.9 µM and the TGI stood at 30.5 µM.

In the case of `O=C(NNc1nc2c(F)cccc2n2cccc12)c1cnccn1`, the GI50 was 1.15 µM and the TGI is 8.31 µM.

Take `CN=C(N)N/N=C(\c1ccccc1)c1ccc(Br)cc1`: the GI50 is 0.913 µM and the TGI worked out at 12.9 µM.

As to `COc1cc(/C=C\[N+](=O)[O-])ccc1O`, the GI50 is 2.42 µM and the TGI is 6.77 µM.

Consider `O=C(Nc1cccc(-n2ccc3c(NC(=O)c4ccccc4)nccc32)c1)c1cccc(C(F)(F)F)c1`, for which the GI50 was 0.0804 µM and the TGI came to 19.9 µM.

`C=CC(=O)N[C@H]1C=C(C)c2c(-c3cnc4ccccc4c3)c3c(N)ncnc3n2C1`: the GI50 is 13.4 µM and the TGI is over 80.4 µM.

As for `CNC(=O)c1ccccc1CC1(O)c2ccccc2Oc2ccccc21`, the GI50 was 33.8 µM and the TGI is over 100 µM.

`CCOc1ccc(S(=O)(=O)/N=C2\C=C(SCC(=O)O)C(=O)c3ccccc32)cc1`: the GI50 is 16.1 µM and the TGI stood at 39.3 µM.

On to `C[C@@H]1CC[C@@H]2[C@@H]1[C@H](OC(=O)/C=C/c1ccccc1)[C@]1(c3ccccc3)C[C@@H](OC(=O)CO)[C@@]2(C)O1`, for which the GI50 was 21.1 µM and the TGI was 43.1 µM.

For the compound `O=C(CSc1nc2ccc([N+](=O)[O-])cc2[nH]1)Nc1ccc(F)c(Cl)c1`, the GI50 is 1.54 µM and the TGI turned out to be 6.32 µM.

For the compound `C=C1C(=O)O[C@H]2[C@H]1CC/C(CNC(=O)c1c[nH]c3ccc(F)cc13)=C\CC[C@@]1(C)O[C@@H]21`, the GI50 was 2.06 µM and the TGI is 4.89 µM.

With `Cc1nn(-c2ccc(F)cc2)c2ncnc(Nc3ccc(NC(=O)Nc4ccc(Cl)c(C(F)(F)F)c4)cc3)c12`, the GI50 is 2.25 µM and the TGI turned out to be 5.99 µM.

Regarding `O=C(CCN1CCN(c2cnc3ccccc3n2)CC1)c1csc2ccccc12`, the GI50 is over 100 µM and the TGI is over 100 µM.
